{"source": "ChEMBL document CHEMBL3885881", "about": "“DrugMatrix”", "species": "Rattus norvegicus", "assay": "DrugMatrix - Regimen: Daily Repeat", "assay_type": "toxicity, organism-based, Sprague-Dawley", "design": "regimen Daily Repeat, gender Male, age 6-8 weeks", "settings": "in vivo, po, 10 mg/kg, route oral GAVAGE, dose level Low, […]; for ABSOLUTE BASOPHIL / ABSOLUTE EOSINOPHIL / ABSOLUTE LYMPHOCYTE / ABSOLUTE MONOCYTE / ABSOLUTE SEGMENTED NEUTROPHIL / BASOPHIL / EOSINOPHIL / HEMATOCRIT / HEMOGLOBIN / LEUKOCYTE COUNT / LYMPHOCYTE / MEAN CORPUSCULAR HEMOGLOBIN / MEAN CORPUSCULAR HEMOGLOBIN CONCENTRATION / MEAN CORPUSCULAR VOLUME / MONOCYTE / NEUTROPHIL / NUCLEATED RED BLOOD CELLS / PLATELET COUNT: tissue Blood; for ALANINE AMINOTRANSFERASE / ALBUMIN / ALKALINE PHOSPHATASE / ASPARTATE AMINOTRANSFERASE / BLOOD UREA NITROGEN / CARBON DIOXIDE / CHLORIDE / CHOLESTEROL / CREATINE PHOSPHOKINASE / CREATININE / GLUCOSE / LIPASE / PHOSPHORUS / POTASSIUM / SODIUM / TOTAL BILIRUBIN / TOTAL PROTEIN / URIC ACID: tissue Plasma", "data": [{"smiles": "CN1CCN2c3ccccc3Cc3ccccc3C2C1", "note": "(configuration not stated) [MIANSERIN]", "values": [{"measurement": "ABSOLUTE BASOPHIL", "setting": "72 h, time 3 day", "result": 0, "unit": "CELLS/uL"}, {"measurement": "ABSOLUTE EOSINOPHIL", "setting": "72 h, time 3 day", "result": 54.33, "unit": "CELLS/uL"}, {"measurement": "ABSOLUTE LYMPHOCYTE", "setting": "72 h, time 3 day", "result": 11772.33, "unit": "CELLS/uL"}, {"measurement": "ABSOLUTE MONOCYTE", "setting": "72 h, time 3 day", "result": 287.33, "unit": "CELLS/uL"}, {"measurement": "ABSOLUTE SEGMENTED NEUTROPHIL", "setting": "72 h, time 3 day", "result": 1319.33, "unit": "CELLS/uL"}, {"measurement": "BASOPHIL", "setting": "72 h, time 3 day", "result": 0, "unit": "%"}, {"measurement": "EOSINOPHIL", "setting": "72 h, time 3 day", "result": 0.33, "unit": "%"}, {"measurement": "HEMATOCRIT", "setting": "72 h, time 3 day", "result": 34.47, "unit": "%"}, {"measurement": "HEMOGLOBIN", "setting": "72 h, time 3 day", "result": 13.1, "unit": "G/DL"}, {"measurement": "LEUKOCYTE COUNT", "setting": "72 h, time 3 day", "result": 13.43, "unit": "x10E3/uL"}, {"measurement": "LYMPHOCYTE", "setting": "72 h, time 3 day", "result": 88.33, "unit": "%"}, {"measurement": "MEAN CORPUSCULAR HEMOGLOBIN", "setting": "72 h, time 3 day", "result": 23.57, "unit": "pg"}, {"measurement": "MEAN CORPUSCULAR HEMOGLOBIN CONCENTRATION", "setting": "72 h, time 3 day", "result": 38, "unit": "G/DL"}, {"measurement": "MEAN CORPUSCULAR VOLUME", "setting": "72 h, time 3 day", "result": 61.97, "unit": "fL"}, {"measurement": "MONOCYTE", "setting": "72 h, time 3 day", "result": 2, "unit": "%"}, {"measurement": "NEUTROPHIL", "setting": "72 h, time 3 day", "result": 9.33, "unit": "%"}, {"measurement": "NUCLEATED RED BLOOD CELLS", "setting": "72 h, time 3 day", "result": "0 /100WBC"}, {"measurement": "PLATELET COUNT", "setting": "72 h, time 3 day", "result": 1172, "unit": "x10E3/uL"}, {"measurement": "ALANINE AMINOTRANSFERASE", "setting": "72 h, time 3 day", "result": 74.67, "unit": "u/L"}, {"measurement": "ALBUMIN", "setting": "72 h, time 3 day", "result": 4.4, "unit": "G/DL"}, {"measurement": "ALKALINE PHOSPHATASE", "setting": "72 h, time 3 day", "result": 433.33, "unit": "u/L"}, {"measurement": "ASPARTATE AMINOTRANSFERASE", "setting": "72 h, time 3 day", "result": 111, "unit": "u/L"}, {"measurement": "BLOOD UREA NITROGEN", "setting": "72 h, time 3 day", "result": 16.33, "unit": "mg/dL"}, {"measurement": "CARBON DIOXIDE", "setting": "72 h, time 3 day", "result": 20.67, "unit": "mmol/L"}, {"measurement": "CHLORIDE", "setting": "72 h, time 3 day", "result": 107, "unit": "MEQ/L"}, {"measurement": "CHOLESTEROL", "setting": "72 h, time 3 day", "result": 81, "unit": "mg/dL"}, {"measurement": "CREATINE PHOSPHOKINASE", "setting": "72 h, time 3 day", "result": 603, "unit": "u/L"}, {"measurement": "CREATININE", "setting": "72 h, time 3 day", "result": 0.28, "unit": "mg/dL"}, {"measurement": "GLUCOSE", "setting": "72 h, time 3 day", "result": 162.67, "unit": "mg/dL"}, {"measurement": "LIPASE", "setting": "72 h, time 3 day", "result": 12, "unit": "u/L"}, {"measurement": "PHOSPHORUS", "setting": "72 h, time 3 day", "result": 12.3, "unit": "mg/dL"}, {"measurement": "POTASSIUM", "setting": "72 h, time 3 day", "result": 6.52, "unit": "MEQ/L"}, {"measurement": "SODIUM", "setting": "72 h, time 3 day", "result": 150.33, "unit": "MEQ/L"}, {"measurement": "TOTAL BILIRUBIN", "setting": "72 h, time 3 day", "result": 0.27, "unit": "mg/dL"}, {"measurement": "TOTAL PROTEIN", "setting": "72 h, time 3 day", "result": 6.23, "unit": "G/DL"}, {"measurement": "URIC ACID", "setting": "72 h, time 3 day", "result": 1.93, "unit": "mg/dL"}, {"measurement": "ABSOLUTE BASOPHIL", "setting": "120 h, time 5 day", "result": 0, "unit": "CELLS/uL"}, {"measurement": "ABSOLUTE EOSINOPHIL", "setting": "120 h, time 5 day", "result": 0, "unit": "CELLS/uL"}, {"measurement": "ABSOLUTE LYMPHOCYTE", "setting": "120 h, time 5 day", "result": 13210.67, "unit": "CELLS/uL"}, {"measurement": "ABSOLUTE MONOCYTE", "setting": "120 h, time 5 day", "result": 71.33, "unit": "CELLS/uL"}, {"measurement": "ABSOLUTE SEGMENTED NEUTROPHIL", "setting": "120 h, time 5 day", "result": 1118, "unit": "CELLS/uL"}, {"measurement": "BASOPHIL", "setting": "120 h, time 5 day", "result": 0, "unit": "%"}, {"measurement": "EOSINOPHIL", "setting": "120 h, time 5 day", "result": 0, "unit": "%"}, {"measurement": "HEMATOCRIT", "setting": "120 h, time 5 day", "result": 37.27, "unit": "%"}, {"measurement": "HEMOGLOBIN", "setting": "120 h, time 5 day", "result": 13.67, "unit": "G/DL"}, {"measurement": "LEUKOCYTE COUNT", "setting": "120 h, time 5 day", "result": 14.4, "unit": "x10E3/uL"}, {"measurement": "LYMPHOCYTE", "setting": "120 h, time 5 day", "result": 92, "unit": "%"}, {"measurement": "MEAN CORPUSCULAR HEMOGLOBIN", "setting": "120 h, time 5 day", "result": 23.9, "unit": "pg"}, {"measurement": "MEAN CORPUSCULAR HEMOGLOBIN CONCENTRATION", "setting": "120 h, time 5 day", "result": 36.73, "unit": "G/DL"}, {"measurement": "MEAN CORPUSCULAR VOLUME", "setting": "120 h, time 5 day", "result": 65.03, "unit": "fL"}, {"measurement": "MONOCYTE", "setting": "120 h, time 5 day", "result": 0.33, "unit": "%"}, {"measurement": "NEUTROPHIL", "setting": "120 h, time 5 day", "result": 7.67, "unit": "%"}, {"measurement": "NUCLEATED RED BLOOD CELLS", "setting": "120 h, time 5 day", "result": "0 /100WBC"}, {"measurement": "PLATELET COUNT", "setting": "120 h, time 5 day", "result": 1241.33, "unit": "x10E3/uL"}, {"measurement": "ALANINE AMINOTRANSFERASE", "setting": "120 h, time 5 day", "result": 77.67, "unit": "u/L"}, {"measurement": "ALBUMIN", "setting": "120 h, time 5 day", "result": 4.3, "unit": "G/DL"}, {"measurement": "ALKALINE PHOSPHATASE", "setting": "120 h, time 5 day", "result": 439.33, "unit": "u/L"}, {"measurement": "ASPARTATE AMINOTRANSFERASE", "setting": "120 h, time 5 day", "result": 87.33, "unit": "u/L"}, {"measurement": "BLOOD UREA NITROGEN", "setting": "120 h, time 5 day", "result": 16.67, "unit": "mg/dL"}, {"measurement": "CARBON DIOXIDE", "setting": "120 h, time 5 day", "result": 24.67, "unit": "mmol/L"}, {"measurement": "CHLORIDE", "setting": "120 h, time 5 day", "result": 105.33, "unit": "MEQ/L"}, {"measurement": "CHOLESTEROL", "setting": "120 h, time 5 day", "result": 62, "unit": "mg/dL"}, {"measurement": "CREATINE PHOSPHOKINASE", "setting": "120 h, time 5 day", "result": 238.33, "unit": "u/L"}, {"measurement": "CREATININE", "setting": "120 h, time 5 day", "result": 0.16, "unit": "mg/dL"}, {"measurement": "GLUCOSE", "setting": "120 h, time 5 day", "result": 176.33, "unit": "mg/dL"}, {"measurement": "LIPASE", "setting": "120 h, time 5 day", "result": 11, "unit": "u/L"}, {"measurement": "PHOSPHORUS", "setting": "120 h, time 5 day", "result": 13.77, "unit": "mg/dL"}, {"measurement": "POTASSIUM", "setting": "120 h, time 5 day", "result": 7.05, "unit": "MEQ/L"}, {"measurement": "SODIUM", "setting": "120 h, time 5 day", "result": 148.43, "unit": "MEQ/L"}, {"measurement": "TOTAL BILIRUBIN", "setting": "120 h, time 5 day", "result": 0.23, "unit": "mg/dL"}, {"measurement": "TOTAL PROTEIN", "setting": "120 h, time 5 day", "result": 6.13, "unit": "G/DL"}, {"measurement": "URIC ACID", "setting": "120 h, time 5 day", "result": 2.37, "unit": "mg/dL"}]}]}
